# Data reported in ChEMBL document CHEMBL1153832, “Identification and characterization of UK-201844, a novel inhibitor that interferes with human immunodeficiency virus type 1 gp160 processing” (Antimicrob Agents Chemother, 2007).
# Assays:
# [1] = test system: Human immunodeficiency virus 1; assay: Antiviral activity against HIV1 bearing VSV envelope infected in human HeLa CD4 cells coexpressing LTR/beta-Gal gene assessed as reduction in virus-induced beta-galactosidase reporter gene activity after 72 hrs by single-cycle infection assay; format: functional, organism-based; conditions: Human immunodeficiency virus 1, HeLa
# [2] = test system: Human immunodeficiency virus 1; assay: Antiviral activity against HIV1 bearing HIV1 NL4-3 envelope infected in human HeLa CD4 cells coexpressing LTR/beta-Gal gene assessed as reduction in virus-induced beta-galactosidase reporter gene activity after 72 hrs by single-cycle infection assay; format: functional, organism-based; conditions: Human immunodeficiency virus 1, HeLa
compound,measurement,setting,value
O=C(O)C1=CC(=C(c2ccc(O)c(C(=O)O)c2)c2ccc(O)c(C(=O)O)c2)C=CC1=O [AURINTRICARBOXYLIC ACID],EC50,[1],> 76000 nM
same,EC50,[2],76 nM
